In patent publication US9745335B2 (Blirt S.A., priority 2012, dated 2017):
Where two headings read alike, the source gives them in different places.

Key:
Type in all cases: cell-based
[1] = test system: Candida albicans ATCC 10231; assay: antifungal activity in vitro, serial dilution in RPMI 1640
Experimental: (§1) For the determination of antifungal activity in vitro we used method of serial dilution in buffered medium RPMI 1640, pH 7.0, in a 96-wells microplates, according to the standard procedure (National Committee for Clinical Laboratory Standards. Reference method for broth dilution antifungal susceptibility testing of yeast, approved standard, 2nd ed. M27-A2 vol. 22 Wayne, Pa., 2002). The optical density of cells suspension was measured using a microplates reader (Victor^3, Perkin-Elmer) at the wavelength λ=531 nm (A531). On the basis of obtained results the diagrams of relation between A531 values and concentration of examined compound were made.

[2] = test system: Candida lusitaniae DSM 70102; assay: as above
Experimental: as §1

[3] = test system: Candida krusei DSM 6128; assay: as above
Experimental: as §1

[4] = test system: Candida tropicalis KKP 334; assay: as above
Experimental: as §1

[5] = test system: Saccharomyces cerevisiae ATCC 9763; assay: as above; settings: RPMI 1640, pH 7.0; for Antifungal activity IC50: Saccharomyces cerevisiae ATCC 9763 (first head over MIC and IC50); for Antifungal activity MIC: Saccharomyces cerevisiae ATCC 9763
Experimental: as §1

[6] = test system: Candida glabrata DSM 11226; assay: as above
Experimental: as §1

[7] = test system: Human erythrocytes; assay: hemotoxicity determination (hemolytic activity)
Experimental: The hemotoxicity determination was carried out by the serial dilutions method, according to the procedure described earlier (Slisz, M., et al., E., J Antibiot 57: 669-678 (2004). Human erythrocytes were suspended in the solution of saline to obtain a cell density of suspension 2×10^7/ml. Suitable amounts of diluted solutions of compounds were added to the cell suspension in tubes and were incubated at 37° C. for 30 minutes and then centrifuged (1700×g, 10 min, 4° C.). The concentration of hemoglobin in supernatant after centrifugation of erythrocytes suspension were determined by measuring the absorbance at wavelength λ=540 nm (A540). The maximum level of hemolysis was obtained after incubation of cells suspension in the presence of 0.1% Tritone X-100 (control sample). […] From these graphs, the EH50 values were read which are the interpolated concentrations of compound, for which the A540 value is exactly 50% of the A540 value measured for the control sample.

Compound	Antifungal activity MIC [1] [µg/mL]	Antifungal activity MIC [2] [µg/mL]	Antifungal activity MIC [3] [µg/mL]	Antifungal activity MIC [4] [µg/mL]	Antifungal activity IC50 [5] [µg/mL]	Antifungal activity MIC [5] [µg/mL]	Antifungal activity MIC [6] [µg/mL]	Hemotoxi EH50 [7] [µg/mL]	Hemotoxi EH50 ([7]; human erythrocytes, 37° C., 30 minutes) [µg/mL]
C[C@@H]1[C@H](O)[C@@H](C)/C=C/C=C/C=C/C=C/C=C/C=C/C=C/[C@H](O[C@@H]2O[C@H](C)[C@@H](O)[C@H](NC(=O)[C@@H](N)CSC(C)(C)C)[C@@H]2O)C[C@@H]2O[C@](O)(C[C@@H](O)C[C@@H](O)[C@H](O)CC[C@@H](O)C[C@@H](O)CC(=O)O[C@H]1C)C[C@H](O)[C@H]2C(=O)O [Compound A37, N-L-(S-tert-butyl)cystylamphotericin B]	2	1	4	2	1.28	2	4	>100	
N-D-β-naphtylalanylamphotericin B [Compound A32]	8	4	8	8	3.01	4	8	>100	
C[C@@H]1[C@H](O)[C@@H](C)/C=C/C=C/C=C/C=C/C=C/C=C/C=C/[C@H](O[C@@H]2O[C@H](C)[C@@H](O)[C@H](NC3CC(=O)N(c4ccc([N+](=O)[O-])cc4)C3=O)[C@@H]2O)C[C@@H]2O[C@](O)(C[C@@H](O)C[C@@H](O)[C@H](O)CC[C@@H](O)C[C@@H](O)CC(=O)O[C@H]1C)C[C@H](O)[C@H]2C(=O)O (some centres unmarked) [Compound A5, N—[N-(4-nitrophenyl)succinimidyl]amphotericin B]	4	2	4	4	1.94	4	4	>100	
C[C@@H]1[C@H](O)[C@@H](C)/C=C/C=C/C=C/C=C/C=C/C=C/C=C/[C@H](O[C@@H]2O[C@H](C)[C@@H](O)[C@H](NC3CC(=O)N(c4ccccc4C(C)(C)C)C3=O)[C@@H]2O)C[C@@H]2O[C@](O)(C[C@@H](O)C[C@@H](O)[C@H](O)CC[C@@H](O)C[C@@H](O)CC(=O)O[C@H]1C)C[C@H](O)[C@H]2C(=O)O (some centres unmarked) [Compound A4, N—[N-(2-tert-butylophenyl)succinimidyl]amphotericin B]	4	4	8	4	3.11	4	8	>100	
C[C@@H]1[C@H](O)[C@@H](C)/C=C/C=C/C=C/C=C/C=C/C=C/C=C/[C@H](O[C@@H]2O[C@H](C)[C@@H](O)[C@H](NCc3ccc(-c4ccccc4)cc3)[C@@H]2O)C[C@@H]2O[C@](O)(C[C@@H](O)C[C@@H](O)[C@H](O)CC[C@@H](O)C[C@@H](O)CC(=O)O[C@H]1C)C[C@H](O)[C@H]2C(=O)O [Compound A20, N-[(4-biphenyl)methyl]amphotericin B]	4	4	4	4	1.63	4	4		>100
C[C@@H]1[C@H](O)[C@@H](C)/C=C/C=C/C=C/C=C/C=C/C=C/C=C/[C@H](O[C@@H]2O[C@H](C)[C@@H](O)[C@H](NCc3ccc(C(C)(C)C)cc3)[C@@H]2O)C[C@@H]2O[C@](O)(C[C@@H](O)C[C@@H](O)[C@H](O)CC[C@@H](O)C[C@@H](O)CC(=O)O[C@H]1C)C[C@H](O)[C@H]2C(=O)O [Compound A21, N-(4-tert-butylbenzyl)amphotericin B]	4	2	4	4	1.58	4	4	>100	
C[C@@H]1[C@H](O)[C@@H](C)/C=C/C=C/C=C/C=C/C=C/C=C/C=C/[C@H](O[C@@H]2O[C@H](C)[C@@H](O)[C@H](NC(=S)Nc3cccnc3)[C@@H]2O)C[C@@H]2O[C@](O)(C[C@@H](O)C[C@@H](O)[C@H](O)CC[C@@H](O)C[C@@H](O)CC(=O)O[C@H]1C)C[C@H](O)[C@H]2C(=O)O [Compound A26, N-[3-(pyridin-3-yl)thioureidyl]amphotericin B]	4	4	8	4	2.55	4	8	>100	
C[C@@H]1[C@H](O)[C@@H](C)/C=C/C=C/C=C/C=C/C=C/C=C/C=C/[C@H](O[C@@H]2O[C@H](C)[C@@H](O)[C@H](NC(=S)NCc3ccncc3)[C@@H]2O)C[C@@H]2O[C@](O)(C[C@@H](O)C[C@@H](O)[C@H](O)CC[C@@H](O)C[C@@H](O)CC(=O)O[C@H]1C)C[C@H](O)[C@H]2C(=O)O [Compound A29, N-{[3-(pyridin-4-yl)methyl]thioureidyl}amphotericin B]	4	4	8	4	2.56	4	8	>100	
C[C@@H]1[C@H](O)[C@@H](C)/C=C/C=C/C=C/C=C/C=C/C=C/C=C/[C@H](O[C@@H]2O[C@H](C)[C@@H](O)[C@H](NC3CC(=O)N(CCO)C3=O)[C@@H]2O)C[C@@H]2O[C@](O)(C[C@@H](O)C[C@@H](O)[C@H](O)CC[C@@H](O)C[C@@H](O)CC(=O)O[C@H]1C)C[C@H](O)[C@H]2C(=O)O (some centres unmarked) [Compound A8, N—[N-(2-hydroxyethyl)succinimidyl]amphotericin B]	4	4	8	4	1.36	4	8	>100	
C[C@@H]1[C@H](O)[C@@H](C)/C=C/C=C/C=C/C=C/C=C/C=C/C=C/[C@H](O[C@@H]2O[C@H](C)[C@@H](O)[C@H](NC3CC(=O)N(c4ccc(Br)cc4)C3=O)[C@@H]2O)C[C@@H]2O[C@](O)(C[C@@H](O)C[C@@H](O)[C@H](O)CC[C@@H](O)C[C@@H](O)CC(=O)O[C@H]1C)C[C@H](O)[C@H]2C(=O)O (some centres unmarked) [Compound A3, N—[N-(4-bromophenyl)succinimidyl]amphotericin B]	4	4	8	4	2.85	4	8	>100	
